Measurements: patent US20030073731A1, “Compositions and methods of the use thereof achiral analogues of CC-1065 and the duocarmycins” (priority 2000, published 2003)

What was measured:
[1] = tested on: plasmid pBR322 DNA; test: Taq polymerase stop assay; format: biochemical
[2] = mice, therapeutic doses; cited from earlier work
[3] = tested on: K562 human chronic myeloid leukemia cells; test: cells; format: cell-based
Procedure: The cytotoxicity was determined using a MTT tetrazolium dye assay (42). […] The incubation was terminated by centrifugation (5 minutes, 300 g) and the cells were washed once with drug-free medium. Following the appropriate drug treatment, the cells were transferred to 96-well microtitre plates, 10^4 cells per well, 8 wells per sample. Plates were then kept in the dark at 37° C. in a humidified atmosphere containing 5% CO2. […] Following incubation of the plates for 4 days (to allow control cells to increase in number by 10 fold) 20 μL of a 5 mg/mL solution of MTT in phosphate buffered saline was added to each well and the plates further incubated for 5 hours. The plates were then centrifuged for 5 minutes at 300 g and the bulk of the medium pipetted from the cell pellet leaving 10-20 μL per well. 200 μL DMSO was added to each well and the samples agitated to ensure complete mixing. The optical density was the read at a wavelength of 550 nm on a Titertek Multiscan ELISA plate reader, and the dose-response curve was constructed.

[4] = tested on: P815 mastocytoma cells; test: cells; format: cell-based, murine; settings: Mus musculus; P815, 72 hr incubation
Procedure: (§1) The P815 and L1210 cell lines were obtained from American Type Tissue Culture Collection (ATCC). The cell lines were grown in Delbecco's Modified Eagle Medium (DMEM, Atlanta Biologicals) supplemented with 10% fetal bovine serum, Hepes Buffer (2 mM, Mediatech Cellgro, 25-060-Cl), L-Glutamine (2 mM, Mediatech Cellgro), and penicillin/streptomycin (50,000 units penicillin, […] streptomycin, Atlanta Biologicals). Cells were maintained at 37° C. in a 5% humidified CO2 atmosphere. […] This cell suspension (100 μL) was added to 96 well flat-bottom cell culture plates. At this concentration, 80,000 cells were seeded in each well. Drug solutions (dissolved in DMSO and diluted in DMEM) were added to each well (5 μL/well) resulting in final concentrations ranging from […] to 1×10^−12 M. Quadruplicate wells were prepared for each drug concentration. The plates were incubated for 72 hr at 37° C. in a 5% CO2 atmosphere. MTT (3-(4,5-dimethylthiazol-2-yl)-2,5-diphenyl tetrazolium bromide) was dissolved in PBS (5 mg/ml). After the indicated cell incubation period, 10 μL of this stock MTT solution was added to each well and the plates were further incubated for 4 h at 37° C. in a 5% CO2 atmosphere. […] The contents of the well were mixed thoroughly by pipetting the cell suspension up and down and the plates were allowed to sit at room temperature for 15 min in order to allow for full development of the purple color. The plates were read on a Dynatech Plate Reader, utilizing Dynex Revelation 3.2 software, with a test wavelenth of 570 nm and a reference wavelength of […].

[5] = tested on: L1210 leukemia cells; test: cells; format: cell-based, murine; settings: Mus musculus; L1210, 72 hr incubation
Procedure: as §1

[6] = tested on: human tumor cells cultivated in polyvinylidene fluoride (PVDF) hollow fibers; test: Hollow fiber assay for preliminary in vivo testing; parameters: species or system mice
Procedure: For these assays, human tumor cells are cultivated in polyvinylidene fluoride (PVDF) hollow fibers, and a sample of each cell line is implanted into each of two physiologic compartments (intraperitoneal and subcutaneous) in mice. […] Three mice are treated with potential antitumor compounds at each of 2 test doses by the intraperitoneal route using a QD×4 treatment schedule. Vehicle controls consist of 6 mice receiving the compound diluent only. The fiber cultures are collected on the day following the last day of treatment. To assess anticancer effects, viable cell mass is determined for each of the cell lines using a formazan dye (MTT) conversion assay. From this, the %T/C can be calculated using the average optical density of the compound treated samples divided by the average optical density of the vehicle controls. In addition, the net increase in cell mass can be determined for each sample as a sample of fiber cultures are assessed for viable cell mass on the day of implantation into mice. Thus, the cytostatic and cytocidal capacities of the test compound can be assessed.
The data are reported as %T/C for each of the 2 compound doses against each of the cell lines with separate values calculated for the intraperitoneal and subcutaneous samples.
The intraperitoneal and subcutaneous samples are scored separately so that criteria (1) and (2) can be evaluated.

[7] = tested on: panel of 60 human cancer cell lines; settings: 48 hour exposure
[8] = tested on: L1210 leukemia; settings: carzelesin 400 μg/kg, adozelesin 100 μg/kg; cited from earlier work
[9] = tested on: melanoma; settings: phase I clinical trial; cited from earlier work
[10] = tested on: mouse L1210 leukemia cells; settings: cited from earlier work
[11] = 72 h, continuous exposure (3 days)

For “4-(2-Bromoethyl)-3-[5-(5-benzofuran-2-carboxamido)indole-2-carboxamido]phenol [Compound 2]”, the “efficiency in alkylating DNA compared with chloro-compound 1” value [1] was “less efficient in alkylating DNA”.

In the case of `COC(=O)c1cc2c([nH]1)C(=O)C=C1N(C(=O)c3cc4cc(OC)c(OC)c(OC)c4[nH]3)CC3CC123` (single isomer, unassigned; (+)) [DUMSA, (+)-duocarmycin SA], the delayed lethality [2] is listed as “devoid of this toxic side effect”.

Molecule `COc1cc2cc(C(=O)Nc3cc(N)ccc3CCCl)[nH]c2c(OC)c1OC` [Compound 24, 4-(2-Chloroethyl)-3-(5,6,7-trimethoxyindole-2-carboxamido)aniline] has an IC50 [3, 11] of 1300 ± 300 nM.

`COc1cc2cc(C(=O)Nc3cc(N)c4ccccc4c3CCCl)[nH]c2c(OC)c1OC` [Compound 25, 4-(2-Chloroethyl)-3-(5,6,7-trimethoxyindole-2-carboxamido)-1-naphthylamine] showed an IC50 ([3]; 1 hour exposure) of 18 nM, an IC50 [3, 11] of 45 nM and an IC50 [4] of 68 nM. The IC50 [5] was 180 nM, the cell kill ([6]; hollow fiber studies) was “cell kill observed” and the SC score ([6]; subcutaneous fibers) was 8. The “cytotoxic activity in the NCI screen” value [7] was “activity in the micromolar range”.

`COc1cc2cc(C(=O)Nc3cc(O)c4ccccc4c3CCCl)[nH]c2c(OC)c1OC` [Compound 26, 4-(2-Chloroethyl)-3-(5,6,7-trimethoxyindole-2-carboxamido)-1-naphthol] showed an IC50 ([3]; 1 hour exposure) of 17 nM, an IC50 [3, 11] of 150 nM and an IC50 [5] of 55 nM. For the same molecule, the “cytotoxic activity in the NCI screen” value [7] was “activity in the micromolar range”.

For `Cc1c[nH]c2c1[C@@]13C[C@@H]1CN(C(=O)c1cc4cc(NC(=O)c5cc6ccccc6o5)ccc4[nH]1)C3=CC2=O` [adozelesin], the ILS [8] is given as 90±11 % ILS and the clinical response [9] is given as “partial response on a melanoma patient”.

In the case of `CCN(CC)c1ccc2cc(C(=O)Nc3ccc4[nH]c(C(=O)N5C[C@@H](CCl)c6c5cc(OC(=O)Nc5ccccc5)c5[nH]cc(C)c65)cc4c3)oc2c1` [carzelesin], the ILS [8] is listed as 150±8 % ILS.

In the case of (+)-CC1065, the delayed lethality [2] is given as “delayed lethality in mice at therapeutic doses”, the IC50 ([10]; L1210) is given as 0.02 nM and the “IC50 values” ([10]; growth of mouse L1210 leukemia cells in culture) is given as “pM range”.
